Measurements published in patent US20230279002A1, “Polymorphs of Crystalline Forms of 3,10-dimethoxy-5,8,13,13a-tetrahydro-6H-isoquinolino[3,2-a]isoquinolin-9-yl 3-fluorobenzenesulfonate and Salts Thereof” (CVI Pharmaceuticals Limited, priority 2020, published 2023).
Read-outs that look alike come from different tables or passages of the source.

Tests used:
Format in all cases: physicochemical
[1] = Solubility in SGF, FaSSIF, FeSSIF, 0.1M HCl, pH 4.5 and pH 6.8 aqueous at 25° C. (HPLC); settings: for solubility: 25 °C, thermodynamic from solid, read-out: Solubility conc.(mg/ml); for Final pH: solubility test
Method: Solubility: Excess drug substance was equilibrated with SGF (Simulated Gastric Fluid), FaSSIF (Simulated Small Intestinal Fluid under Fasted state), FeSSIF (Simulated Small Intestinal Fluid under Fed state), 0.1M HCl, pH 4.5 aqueous, and pH 6.8 aqueous at 25° C. After stirring for 20˜24 h, each sample was filtered, diluted appropriately and analyzed by HPLC. The experiment was terminated once a solubility target of 5 mg/mL was reached.

[2] = Solid stability at 40° C./0% RH (closed) and 40° C./75% RH (open), HPLC; settings: for 0 day % remaining / 7 day % remaining / 21 day % remaining: solid
Summary of the method: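 Solid compound (5 mg) stored in the dark at 40 °C/0% RH in closed vials and at 40 °C/75% RH open. Samples analysed by HPLC at day 0, 5 and 10, or at days 0, 7 and 21, depending on the study.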

[3] = Solution stability in 0.1 N HCl, pH 4.5 buffer and pH 6.8 buffer at 25° C. and 37° C., HPLC; settings: for Remaining %: 50 μg/mL, 40% MeOH; for Solution stability: 0.1 N HCl, pH 4.5 buffer and pH 6.8 buffer
Summary of the method: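 Methanol stock (1.0 mg/mL) diluted with each medium to ionic strength 0.15 M, final 50 μg/mL in 40% MeOH; acetate used for pH 4.5. For 1b and 3b at pH 6.8, final 25 μg/mL in 40% DMSO. Solutions stored at 25° C. and 37° C.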

[4] = DVS (Dynamic Vapor Sorption) moisture sorption/desorption, hygroscopicity classification
Summary of the method: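 Moisture sorption/desorption profiled by DVS on about 10–20 mg sample, isothermal at 25° C, cycling 0%→95%→0% RH in 5% RH steps. Equilibrium per step taken at dm/dt ≤ 0.01%/min. Hygroscopicity class assigned from %-moisture gain versus rising RH.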

[5] = TGA (Thermal Gravimetric Analysis) weight loss; settings: DSC and TGA
Method: TGA (Thermal Gravimetric Analysis): Samples of compounds (4˜6 mg) were weighed into the pan, and heated under nitrogen purge using a ramp rate of 20° C./min over the range of 30° C.˜350° C.

solubility ([1]; 0.1 N HCl, simulated gastric fluid, 0.1N HCL, solubility of salts transformed to freebase): 0.206 mg/mL
solubility ([1]; FaSSIF (Simulated Small Intestinal Fluid, fasted state), fassif, FaSSIF, solubility of salts transformed to freebase): 0.01 mg/mL
solubility ([1]; FeSSIF (Simulated Small Intestinal Fluid, fed state), fessif, FeSSIF, solubility of salts transformed to freebase): 0.011 mg/mL
Solubility conc.(mg/ml) ([1]; SGF, solubility of salts transformed to freebase): 0.147 mg/mL
solubility ([1]; pH 4.5 acetate buffer (USP), pH 4.5, aqueous buffer, pH 4.5 Acetate Buffer (USP), solubility of salts transformed to freebase): 0.01 mg/mL
solubility ([1]; pH 6.8 phosphate buffer (USP), pH 6.8, aqueous buffer, pH 6.8 Phosphate Buffer (USP), solubility of salts transformed to freebase): 0.008 mg/mL
Final pH ([1]; 0.1N HCL): 1.59
Final pH ([1]; FaSSIF): 6.23
Final pH ([1]; FeSSIF): 4.93
Final pH ([1]; SGF): 1.59
Final pH ([1]; Water): 2.74
Final pH ([1]; pH 4.5 Acetate Buffer (USP)): 4.44
Final pH ([1]; pH 6.8 Phosphate Buffer (USP)): 6.67
solubility ([1]; water, water, Water, solubility of salts transformed to freebase): 0.096 mg/mL
Solid-state stability (HPLC) ([2]; 40° C./0% RH (closed) and 40° C./75% RH (open), dark, up to 3 weeks): substantially stable
0 day % remaining ([2]; 40° C. (0% RH, closed)): 100.0%
7 day % remaining ([2]; 40° C. (0% RH, closed)): 100.4%
21 day % remaining ([2]; 40° C. (0% RH, closed)): 100.0%
0 day % remaining ([2]; 40° C./75% RH (open)): 100.0%
7 day % remaining ([2]; 40° C./75% RH (open)): 100.3%
21 day % remaining ([2]; 40° C./75% RH (open)): 100.1%
Solution stability, overall comparison of 1b, 2b and 3b ([3]; 25° C. and 37° C.): best solution stability behaviors
Remaining % ([3]; 25° C., 0.1N HCL, 0 h): 100.00%
Remaining % ([3]; 25° C., 0.1N HCL, 3 h): 100.07%
Remaining % ([3]; 25° C., 0.1N HCL, 24 h): 100.37%
Solution stability ([3]; 25° C., 24 h): stable
Remaining % ([3]; 25° C., pH 4.5, 0 h): 100.00%
Remaining % ([3]; 25° C., pH 4.5, 3 h): 99.80%
Remaining % ([3]; 25° C., pH 4.5, 24 h): 99.52%
Remaining % ([3]; 25° C., pH 6.8, 0 h): 100.00%
Remaining % ([3]; 25° C., pH 6.8, 3 h): 99.52%
Remaining % ([3]; 25° C., pH 6.8, 24 h): 98.01%
Remaining % ([3]; 37° C., 0.1N HCL, 0 h): 100.00%
Remaining % ([3]; 37° C., 0.1N HCL, 3 h): 100.34%
Remaining % ([3]; 37° C., 0.1N HCL, 24 h): 100.95%
Solution stability ([3]; 37° C., 24 h): stable
Remaining % ([3]; 37° C., pH 4.5, 0 h): 100.00%
Remaining % ([3]; 37° C., pH 4.5, 3 h): 100.00%
Remaining % ([3]; 37° C., pH 4.5, 24 h): 99.45%
Remaining % ([3]; 37° C., pH 6.8, 0 h): 100.00%
Remaining % ([3]; 37° C., pH 6.8, 3 h): 100.28%
Remaining % ([3]; 37° C., pH 6.8, 24 h): 99.86%
Hygroscopicity classification by DVS ([4]; 25 °C): not hygroscopic
Change In Mass (%) - ref, Desorption ([4]; Cycle 1, target RH 0.0%): −0.0081%
Change In Mass (%) - ref, Sorption ([4]; Cycle 1, target RH 0.0%): 0.0011%
Change In Mass (%) - ref, Desorption ([4]; Cycle 1, target RH 5.0%): −0.0035%
Change In Mass (%) - ref, Hysteresis ([4]; Cycle 1, target RH 5.0%): −0.0042%
Change In Mass (%) - ref, Sorption ([4]; Cycle 1, target RH 5.0%): 0.0007%
Change In Mass (%) - ref, Desorption ([4]; Cycle 1, target RH 10.0%): 0.0000%
Change In Mass (%) - ref, Hysteresis ([4]; Cycle 1, target RH 10.0%): −0.0032%
Change In Mass (%) - ref, Sorption ([4]; Cycle 1, target RH 10.0%): 0.0032%
Change In Mass (%) - ref, Desorption ([4]; Cycle 1, target RH 15.0%): 0.0011%
Change In Mass (%) - ref, Hysteresis ([4]; Cycle 1, target RH 15.0%): −0.0033%
Change In Mass (%) - ref, Sorption ([4]; Cycle 1, target RH 15.0%): 0.0044%
Change In Mass (%) - ref, Desorption ([4]; Cycle 1, target RH 20.0%): 0.0044%
Change In Mass (%) - ref, Hysteresis ([4]; Cycle 1, target RH 20.0%): −0.0037%
Change In Mass (%) - ref, Sorption ([4]; Cycle 1, target RH 20.0%): 0.0081%
Change In Mass (%) - ref, Desorption ([4]; Cycle 1, target RH 25.0%): 0.0062%
Change In Mass (%) - ref, Hysteresis ([4]; Cycle 1, target RH 25.0%): −0.0037%
Change In Mass (%) - ref, Sorption ([4]; Cycle 1, target RH 25.0%): 0.0099%
Change In Mass (%) - ref, Desorption ([4]; Cycle 1, target RH 30.0%): 0.0081%
Change In Mass (%) - ref, Hysteresis ([4]; Cycle 1, target RH 30.0%): −0.0037%
Change In Mass (%) - ref, Sorption ([4]; Cycle 1, target RH 30.0%): 0.0118%
Change In Mass (%) - ref, Desorption ([4]; Cycle 1, target RH 35.0%): 0.0100%
Change In Mass (%) - ref, Hysteresis ([4]; Cycle 1, target RH 35.0%): −0.0033%
Change In Mass (%) - ref, Sorption ([4]; Cycle 1, target RH 35.0%): 0.0134%
Change In Mass (%) - ref, Desorption ([4]; Cycle 1, target RH 40.0%): 0.0123%
Change In Mass (%) - ref, Hysteresis ([4]; Cycle 1, target RH 40.0%): −0.0026%
Change In Mass (%) - ref, Sorption ([4]; Cycle 1, target RH 40.0%): 0.0150%
Change In Mass (%) - ref, Desorption ([4]; Cycle 1, target RH 45.0%): 0.0185%
Change In Mass (%) - ref, Hysteresis ([4]; Cycle 1, target RH 45.0%): 0.0012%
Change In Mass (%) - ref, Sorption ([4]; Cycle 1, target RH 45.0%): 0.0173%
Change In Mass (%) - ref, Desorption ([4]; Cycle 1, target RH 50.0%): 0.0204%
Change In Mass (%) - ref, Hysteresis ([4]; Cycle 1, target RH 50.0%): 0.0035%
Change In Mass (%) - ref, Sorption ([4]; Cycle 1, target RH 50.0%): 0.0169%
Change In Mass (%) - ref, Desorption ([4]; Cycle 1, target RH 55.0%): 0.0243%
Change In Mass (%) - ref, Hysteresis ([4]; Cycle 1, target RH 55.0%): 0.0056%
Change In Mass (%) - ref, Sorption ([4]; Cycle 1, target RH 55.0%): 0.0187%
Change In Mass (%) - ref, Desorption ([4]; Cycle 1, target RH 60.0%): 0.0264%
Change In Mass (%) - ref, Hysteresis ([4]; Cycle 1, target RH 60.0%): 0.0063%
Change In Mass (%) - ref, Sorption ([4]; Cycle 1, target RH 60.0%): 0.0201%
Change In Mass (%) - ref, Desorption ([4]; Cycle 1, target RH 65.0%): 0.0294%
Change In Mass (%) - ref, Hysteresis ([4]; Cycle 1, target RH 65.0%): 0.0083%
Change In Mass (%) - ref, Sorption ([4]; Cycle 1, target RH 65.0%): 0.0211%
Change In Mass (%) - ref, Desorption ([4]; Cycle 1, target RH 70.0%): 0.0344%
Change In Mass (%) - ref, Hysteresis ([4]; Cycle 1, target RH 70.0%): 0.0074%
Change In Mass (%) - ref, Sorption ([4]; Cycle 1, target RH 70.0%): 0.0270%
Change In Mass (%) - ref, Desorption ([4]; Cycle 1, target RH 75.0%): 0.0382%
Change In Mass (%) - ref, Hysteresis ([4]; Cycle 1, target RH 75.0%): 0.0030%
Change In Mass (%) - ref, Sorption ([4]; Cycle 1, target RH 75.0%): 0.0352%
Change In Mass (%) - ref, Desorption ([4]; Cycle 1, target RH 80.0%): 0.0446%
Change In Mass (%) - ref, Hysteresis ([4]; Cycle 1, target RH 80.0%): 0.0037%
Change In Mass (%) - ref, Sorption ([4]; Cycle 1, target RH 80.0%): 0.0409%
Change In Mass (%) - ref, Desorption ([4]; Cycle 1, target RH 85.0%): 0.0530%
Change In Mass (%) - ref, Hysteresis ([4]; Cycle 1, target RH 85.0%): 0.0030%
Change In Mass (%) - ref, Sorption ([4]; Cycle 1, target RH 85.0%): 0.0500%
Change In Mass (%) - ref, Desorption ([4]; Cycle 1, target RH 90.0%): 0.0689%
Change In Mass (%) - ref, Hysteresis ([4]; Cycle 1, target RH 90.0%): 0.0051%
Change In Mass (%) - ref, Sorption ([4]; Cycle 1, target RH 90.0%): 0.0638%
Change In Mass (%) - ref, Desorption ([4]; Cycle 1, target RH 95.0%): 0.0941%
Change In Mass (%) - ref, Sorption ([4]; Cycle 1, target RH 95.0%): 0.0941%
moisture picked up (DVS) ([4]; at 95% RH, 25 °C): ~0.1%
Temperature until which there is no weight loss [5]: about 200 °C
SMILES: COc1ccc2c(c1)CCN1Cc3c(ccc(OC)c3OS(=O)(=O)c3cccc(F)c3)C[C@@H]21 [Compound 2b]
